For orientation: IC50 means the concentration that inhibits the measured activity by half. The low end stands for greater potency in that assay, the high end for weaker potency in that assay. The EC50 is the concentration that produces a half-maximal response.

In assay [1] the target is human CMV DNA polymerase UL54 (Human cytomegalovirus (strain AD169) (HHV-5) (Human herpesvirus 5), UniProt P08546). The assay can be described thus: CMV polymerase biochemical assay (molecular beacon-based). In short, it runs like this:
(§1)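 Readout was beacon fluorescence (ex 480, em 535 nm), used to derive IC50. Each dNTP was at 1.25 uM, with 200 nM primer and 100 nM beacon, after a 30-min RT inhibitor preincubation. Enzyme was 625 pM for HSV UL30 (20 min RT reaction) or 100 pM for CMV UL54 (60 min RT), both sf9-expressed MBP fusions, in pH 7.5 Tris buffer with MgCl2.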

In assay [2] the target is human HSV DNA polymerase UL30 (Human herpesvirus 1 (strain 17) (HHV-1) (Human herpes simplex virus 1), UniProt P04293). Kind of assay: HSV polymerase biochemical assay (molecular beacon-based). An outline of the steps: as §1
Assay [3] has as its system Luciferase-encoding HCMV, AD169 strain. Kind of assay: CMV Luciferase assay (cellular herpesvirus replication). In kind it is cell-based. The note with it: Human betaherpesvirus 5, AD169, read-out: CMV-Luc Cellular EC50. An outline of the steps:
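Neonatal human dermal fibroblasts were pretreated 1 h with compound (final 0.0159–50 μM or 0.00318–10 μM, 0.5% DMSO), then infected at MOI 1 with AD169 carrying pp28-promoter luciferase. After 72 h at 37 °C, Renilla-Glo luminescence normalized to no-virus and virus-only controls; EC50 by 4-parameter logistic model.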

Each structure is given as a SMILES string.

Take `N#Cc1ccc(CNC(=O)c2ccc3n(c2=O)CCN(CC2(S(=O)(=O)C4(O)CC4)CC2)C3=O)cc1` [Example 196, N-(4-cyanobenzyl)-2-((1-((1-hydroxycyclopropyl)sulfonyl)cyclopropyl)methyl)-1,6-dioxo-1,3,4,6-tetrahydro-2H-pyrido[1,2-a]pyrazine-7-carboxamide]: the IC50 was determined as 0.0077 µM in assay [1] and 0.205 µM in assay [2]. Also, the 50% effective concentration (EC50) in assay [3] was 0.509 µM.

On to `CS(=O)(=O)NC1(CN2CCn3c(ccc(C(=O)NCc4ccc(Cl)cc4)c3=O)C2=O)CC1` [Example 198], for which the IC50 was 0.0372 µM in assay [1] and 1.5 µM in assay [2]. The EC50 in assay [3] was 1.68 µM.

On to `CCS(=O)(=O)NC1(CN2CCn3c(ccc(C(=O)NCc4ccc(Cl)cc4)c3=O)C2=O)CC1` [Example 199], for which the IC50 in assay [1] came to 0.0537 µM; in assay [2], 1.11 µM. Also, in assay [3], the half-maximal effective concentration (EC50) is 1.72 µM.

In the case of `O=C(NCc1ccc(Cl)cc1)c1ccc2n(c1=O)CCN(CC1(NS(=O)(=O)C3CC3)CC1)C2=O` [Example 200], the concentration for half-maximal inhibition (IC50) was determined as 0.233 µM in assay [1] and 2.56 µM in assay [2]. The EC50 in assay [3] was 6.77 µM.

On to `O=C(NCc1ccc(Cl)cc1)c1ccc2n(c1=O)CCN(CC1(N3CCCC3=O)CC1)C2=O` [Example 201, N-(4-chlorobenzyl)-1,6-dioxo-2-((1-(2-oxopyrrolidin-1-yl)cyclopropyl)methyl)-1,3,4,6-tetrahydro-2H-pyrido[1,2-a]pyrazine-7-carboxamide], for which the IC50 in assay [1] is 0.182 µM; in assay [2], 4.06 µM. The EC50 in assay [3] is 4.81 µM.

On to `O=C(NCc1ccc(Cl)cc1)c1ccc2n(c1=O)CCN(CC1(N3CCCCC3=O)CC1)C2=O` [Example 202], for which the half-inhibitory concentration (IC50) was 0.305 µM in assay [1] and 6.47 µM in assay [2]. Besides, the EC50 in assay [3] came out at 7.65 µM.

For `O=C(NCc1ccc(Cl)cc1)c1ccc2n(c1=O)CCN(CC1(N3CCOCC3=O)CC1)C2=O` [Example 203], the IC50 was found to be 0.41 µM in assay [1] and 12.2 µM in assay [2]. Besides, the EC50 in assay [3] was determined as 10 µM.

On to `CNC1(CN2CCn3c(ccc(C(=O)NCc4ccc(Cl)cc4)c3=O)C2=O)CC1` [Example 204, N-(4-chlorobenzyl)-2-((1-(methylamino)cyclopropyl)methyl)-1,6-dioxo-1,3,4,6-tetrahydro-2H-pyrido[1,2-a] pyrazine-7-carboxamide], for which the results for the 50% inhibitory concentration (IC50) in assay [1] and in assay [2] were 0.156 µM and 5.47 µM, respectively. Besides, the EC50 in assay [3] was 4.04 µM.

For `CC(=O)N(C)C1(CN2CCn3c(ccc(C(=O)NCc4ccc(Cl)cc4)c3=O)C2=O)CC1` [Example 205], the results for the 50% inhibitory concentration (IC50) in assay [1] and in assay [2] were 0.249 µM and 8.59 µM, respectively. Besides, in assay [3], the EC50 came out at 3.76 µM.

Take `CN(C(=O)OC(C)(C)C)C1(CN2CCn3c(ccc(C(=O)NCc4ccc(Cl)cc4)c3=O)C2=O)CC1` [Example 206]: the half-maximal inhibitory concentration (IC50) amounted to 1.74 µM in assay [1] and 250 µM in assay [2]. Also, the EC50 in assay [3] worked out at 10 µM.

`O=C(NCc1ccc(Cl)cc1)c1ccc2n(c1=O)CCN(CC1(C(=O)N3CCCC3)CC1)C2=O` [Example 210]: the IC50 in assay [1] came to 0.0257 µM; in assay [2], 0.428 µM. Further, the half-maximal effective concentration (EC50) in assay [3] worked out at 0.494 µM.

Consider `CNc1cc(CNC(=O)c2ccc3n(c2=O)CCN(CC2(S(=O)(=O)C4CC4)CC2)C3=O)ccc1C#N` [Example 212, N-(4-cyano-3-(methylamino)benzyl)-2-((1-(cyclopropylsulfonyl)cyclopropyl)methyl)-1,6-dioxo-1,3,4,6-tetrahydro-2H-pyrido[1,2-a]pyrazine-7-carboxamide], for which the IC50 turned out to be 0.0006 µM in assay [1] and 0.0514 µM in assay [2]. Moreover, in assay [3], the EC50 was 0.315 µM.
